Measurements published in EP4653437A2 (Innovo Therapeutics Inc., priority 2023, dated 2024).
pIC50: −log10 of the molar value.

Columns and labels:
human 15-PGDH = target: T1, human 15-PGDH (Homo sapiens, UniProt P15428); assay: Evaluation of 15-PGDH inhibitory activity (fluorescence enzyme assay, NAD+/PGE2); assay type: biochemical; details: human 15-PGDH enzyme, fluorescence Vmax
T1 construct: purchased R&D System 5660-DH
T1 sequence (P15428 1-266): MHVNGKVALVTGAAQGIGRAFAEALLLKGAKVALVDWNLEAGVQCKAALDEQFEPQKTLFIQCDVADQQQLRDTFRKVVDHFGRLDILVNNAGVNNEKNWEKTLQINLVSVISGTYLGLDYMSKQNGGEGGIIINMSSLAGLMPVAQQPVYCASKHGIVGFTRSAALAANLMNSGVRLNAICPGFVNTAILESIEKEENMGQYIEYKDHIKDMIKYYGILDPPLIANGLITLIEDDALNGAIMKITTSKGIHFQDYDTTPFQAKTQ
Protocol: 15-PGDH inhibition activity of Example compounds was measured as follows. 6.7 ng of human 15-PGDH (R&D System# 5660-DH) enzyme (10 µL) was added to a black 96 well plate, 60 µL of buffer (50 mM Tris-HCl, pH 7.5, 0.01% Tween 20) was added, and 10 µL of 200 µM β-Nicotinamide adenine dinucleotide sodium salt (Sigma, Cat# N0632-5G) was added. 10 µL of (10x) compound solution in DMSO was added and reacted for 10 minutes at room temperature.

A549 cells = assay: Measurement of PGE2-increasing activity in A549 cells (IL-1β stimulated, PGE2 quantified in supernatant); assay type: cell-based; details: Homo sapiens, 24 h; concentration of 1 µM of each compound; IL-1β treated A549 cells; read-out: Increased PGE2 production in A549 cells
Procedure, shortened: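 PGE2 secreted into the supernatant was measured by immunoassay 24 h after treatment. Before treatment, A549 cells were cultured 24 h in 10% FBS F12K, washed, and placed in serum-free medium containing compound (DMSO 0.1% final) plus or minus IL-1β, incubated at 37 °C, 5% CO2.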

| Structure (SMILES) | pIC50 (human 15-PGDH) | fold induction at 1 µM (A549 cells) |
| --- | --- | --- |
| O=C1NCc2ccc(-c3cccc4c(C(=O)N5CC=CCC5)cnn34)cc21 [Example 401, 6-(3-(1,2,3,6-tetrahydropyridine-1-carbonyl)pyrazolo[1,5-a]pyridin-7-yl)isoindolin-1-one] | ≥ 7.00 | > 1.5 |
| COCCNC(=O)c1ccc(-c2cccc3c(C(=O)N4CCCCC4)cnn23)cc1 [Example 62, N-(2-methoxyethyl)-4-(3-(piperidine-1-carbonyl)pyrazolo[1,5-a]pyridin-7-yl)benzamide] | ≥ 7.00 | > 1.5 |
| Cc1cnc(-c2ccc(-c3cccc4c(C(=O)N5CCCCC5)cnn34)cc2)s1 [Example 351, [7-[4-(5-methylthiazol-2-yl)phenyl]pyrazolo[1,5-a]pyridin-3-yl]-(1-piperidyl)methanone] | ≥ 7.00 | > 1.5 |
| CN(C)c1cc(-c2cccc3c(C(=O)N4CCCCC4)cnn23)ccc1C#N [Example 23, 2-(dimethylamino)-4-(3-(piperidine-1-carbonyl)pyrazolo[1,5-a]pyridin-7-yl)benzonitrile] | ≥ 7.00 | > 1.5 |
| O=C(c1cnn2c(-c3ccc(-c4nnn[nH]4)cc3)cccc12)N1CCCCC1 [Example 114, (7-(4-(1H-tetrazol-5-yl)phenyl)pyrazolo[1,5-a]pyridin-3-yl)(piperidin-1-yl)methanone] | ≥ 7.00 | > 1.5 |
| N#Cc1ncc(-c2cccc3c(C(=O)N4CCCCC4)cnn23)cn1 [Example 293, 5-[3-(piperidine-1-carbonyl)pyrazolo[1,5-a]pyridin-7-yl]pyrimidine-2-carbonitrile] | ≥ 7.00 | > 1.5 |
| CNc1nn2c(-c3ccc4c(c3)C(=O)NCC4)cccc2c1C(=O)N1CCCCC1 [Example 160] | < 6.00 | < 1.5 |
| CNC(=O)c1cncc(-c2cccc3c(C(=O)N4CCCCC4)cnn23)c1 [Example 40, N-methyl-5-(3-(piperidine-1-carbonyl)pyrazolo[1,5-a]pyridin-7-yl)nicotinamide] | ≥ 7.00 | > 1.5 |
| O=C1NCc2cc(-c3cccc4c(C(=O)N5CCCCC5)cnn34)ccc21 [Example 143, 5-(3-(piperidine-1-carbonyl)pyrazolo[1,5-a]pyridin-7-yl)isoindolin-1-one] | ≥ 7.00 | > 1.5 |
| O=C(c1cnn2c(-c3cnc(F)c(F)c3)cccc12)N1CCCCC1 [Example 288, (7-(5,6-difluoropyridin-3-yl)pyrazolo[1,5-a]pyridin-3-yl)(piperidin-1-yl)methanone] | ≥ 7.00 | > 1.5 |
| N#Cc1cc(-c2cccc3c(C(=O)N4CCCCC4)cnn23)cc([N+](=O)[O-])c1 [Example 312, 3-nitro-5-(3-(piperidine-1-carbonyl)pyrazolo[1,5-a]pyridin-7-yl)benzonitrile] | ≥ 7.00 | > 1.5 |

The next lines start with results.

| pIC50 (human 15-PGDH) | Structure (SMILES) | fold induction at 1 µM (A549 cells) |
| --- | --- | --- |
| ≥ 7.00 | O=C(NC1CNC1)c1cncc(-c2cccc3c(C(=O)N4CCCCC4)cnn23)c1 [Example 200, N-(azetidin-3-yl)-5-(3-(piperidine-1-carbonyl)pyrazolo[1,5-a]pyridin-7-yl)nicotinamide] | > 1.5 |
| 6.00 to 7.00 | CN1CCC(Nc2cccc3c(C(=O)N4CCCCC4)cnn23)CC1 [Example 150, (7-((1-methylpiperidin-4-yl)amino)pyrazolo[1,5-a]pyridin-3-yl)(piperidin-1-yl)methanone] | < 1.5 |
| ≥ 7.00 | O=C1NCCc2cc(-c3cccc4c(C(=O)N5CCCCC5)cnn34)ccc21 [Example 136, 6-(3-(piperidine-1-carbonyl)pyrazolo[1,5-a]pyridin-7-yl)-3,4-dihydroisoquinolin-1(2H)-one] | > 1.5 |
| ≥ 7.00 | O=C(Cc1cncnc1)Nc1ccc(-c2cccc3c(C(=O)N4CCCCC4)cnn23)cn1 [Example 407, N-[5-[3-(piperidine-1-carbonyl)pyrazolo[1,5-a]pyridin-7-yl]-2-pyridyl]-2-pyrimidin-5-yl-acetamide] | > 1.5 |
| ≥ 7.00 | Cc1nc(-c2ccc(-c3cccc4c(C(=O)N5CCCCC5)cnn34)cc2)no1 [Example 118, (7-(4-(5-methyl-1,2,4-oxadiazol-3-yl)phenyl)pyrazolo[1,5-a]pyridin-3-yl)(piperidin-1-yl)methanone] | > 1.5 |
| ≥ 7.00 | O=C(Cc1ccccc1)Nc1cncc(-c2cccc3c(C(=O)N4CCCCC4)cnn23)c1 [Example 389, 2-phenyl-N-(5-(3-(piperidine-1-carbonyl)pyrazolo[1,5-a]pyridin-7-yl)pyridin-3-yl)acetamide] | > 1.5 |
| ≥ 7.00 | O=C(c1cnn2c(-c3ccc(-c4noc(=O)[nH]4)cc3)cccc12)N1CCCCC1 [Example 116, 3-(4-(3-(piperidine-1-carbonyl)pyrazolo[1,5-a]pyridin-7-yl)phenyl)-1,2,4-oxadiazol-5(4H)-one] | > 1.5 |
| ≥ 7.00 | O=C(c1cnn2c(-c3ccc4occc4c3)cccc12)N1CCCCC1 [Example 127, (7-(benzofuran-5-yl)pyrazolo[1,5-a]pyridin-3-yl)(piperidin-1-yl)methanone] | > 1.5 |
| ≥ 7.00 | O=C(Cc1cncc(F)c1)Nc1cncc(-c2cccc3c(C(=O)N4CCCCC4)cnn23)c1 [Example 402, 2-(5-fluoropyridin-3-yl)-N-(5-(3-(piperidine-1-carbonyl)pyrazolo[1,5-a]pyridin-7-yl)pyridin-3-yl)acetamide] | > 1.5 |
| ≥ 7.00 | CN(C)CC(=O)Nc1cncc(-c2cccc3c(C(=O)N4CCCCC4)cnn23)c1 [Example 196, 2-(dimethylamino)-N-(5-(3-(piperidine-1-carbonyl)pyrazolo[1,5-a]pyridin-7-yl)pyridin-3-yl)acetamide] | > 1.5 |
| ≥ 7.00 | O=C(c1cnn2c(-c3ccc(Cl)cc3)cccc12)N1CCCCC1 [Example 12, (7-(4-chlorophenyl)pyrazolo[1,5-a]pyridin-3-yl)(piperidin-1-yl)methanone] | > 1.5 |
| ≥ 7.00 | O=C(Nc1ccncc1)c1ccc(-c2cccc3c(C(=O)N4CCCCC4)cnn23)cc1 [Example 72, 4-(3-(piperidine-1-carbonyl)pyrazolo[1,5-a]pyridin-7-yl)-N-(pyridin-4-yl)benzamide] | > 1.5 |
| ≥ 7.00 | O=C(Nc1ccc(-c2cccc3c(C(=O)N4CCCCC4)cnn23)cc1)C1CCCCC1 [Example 102, N-(4-(3-(piperidine-1-carbonyl)pyrazolo[1,5-a]pyridin-7-yl)phenyl)cyclohexanecarboxamide] | < 1.5 |
| ≥ 7.00 | O=C(c1cnn2c(-c3cnn(Cc4noc(=O)[nH]4)c3)cccc12)N1CCCCC1 [Example 396, 3-((4-(3-(piperidine-1-carbonyl)pyrazolo[1,5-a]pyridin-7-yl)-1H-pyrazol-1-yl)methyl)-1,2,4-oxadiazol-5(4H)-one] | > 1.5 |
| ≥ 7.00 | O=C(Cc1cncnc1)Nc1cncc(-c2cccc3c(C(=O)N4CCCCC4)cnn23)c1 [Example 403, N-(5-(3-(piperidine-1-carbonyl)pyrazolo[1,5-a]pyridin-7-yl)pyridin-3-yl)-2-(pyrimidin-5-yl)acetamide] | > 1.5 |
